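The compound was tested at five concentrations on cells cultured in 96-well plates, with a 48-hour exposure period. GI50 is the concentration that inhibits growth by half. TGI marks complete inhibition of growth.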
Assays:
Test in all cases: NCI anticancer screen, dose series, 48 h
PC-3 prostate = system: PC-3 prostate
NCI-H522 lung = system: NCI-H522 lung
MALME-3M melanoma = system: MALME-3M melanoma
MCF7 breast = system: MCF7 breast
SNB-75 CNS = system: SNB-75 CNS
SF-268 CNS = system: SF-268 CNS
HT29 colon = system: HT29 colon
SK-OV-3 ovarian = system: SK-OV-3 ovarian
SF-539 CNS = system: SF-539 CNS
HOP-62 NSCLC = system: HOP-62 NSCLC
ACHN renal = system: ACHN renal
MDA-MB-435 = system: MDA-MB-435
UACC-257 melanoma = system: UACC-257 melanoma
U251 CNS = system: U251 CNS
HCT-15 colon = system: HCT-15 colon
HS 578T breast = system: HS 578T breast
HCC-2998 colon = system: HCC-2998 colon
786-0 renal = system: 786-0 renal
A549 NSCLC = system: A549 NSCLC
HL-60(TB) leukemia = system: HL-60(TB) leukemia
OVCAR-8 ovarian = system: OVCAR-8 ovarian
MOLT-4 leukemia = system: MOLT-4 leukemia
T-47D breast = system: T-47D breast
NCI/ADR-RES ovarian = system: NCI/ADR-RES ovarian
COLO 205 colon = system: COLO 205 colon
SNB-19 CNS = system: SNB-19 CNS
M14 melanoma = system: M14 melanoma
A498 renal = system: A498 renal
CCRF-CEM leukemia = system: CCRF-CEM leukemia
RXF 393 renal = system: RXF 393 renal
NCI-H23 lung = system: NCI-H23 lung
OVCAR-5 ovarian = system: OVCAR-5 ovarian
IGROV1 ovarian = system: IGROV1 ovarian
SW-620 colon = system: SW-620 colon
OVCAR-3 ovarian = system: OVCAR-3 ovarian
SR leukemia = system: SR leukemia
OVCAR-4 ovarian = system: OVCAR-4 ovarian
DU-145 prostate = system: DU-145 prostate
NCI-H226 lung = system: NCI-H226 lung
SN12C renal = system: SN12C renal
SK-MEL-28 melanoma = system: SK-MEL-28 melanoma
KM12 colon = system: KM12 colon
HOP-92 NSCLC = system: HOP-92 NSCLC
EKVX NSCLC = system: EKVX NSCLC
MDA-MB-231 breast = system: MDA-MB-231 breast
HCT-116 colon = system: HCT-116 colon
CAKI-1 renal = system: CAKI-1 renal
SK-MEL-5 melanoma = system: SK-MEL-5 melanoma
K-562 leukemia = system: K-562 leukemia
UACC-62 melanoma = system: UACC-62 melanoma
LOX IMVI melanoma = system: LOX IMVI melanoma
RPMI-8226 leukemia = system: RPMI-8226 leukemia
SF-295 CNS = system: SF-295 CNS
NCI-H460 lung = system: NCI-H460 lung
BT-549 breast = system: BT-549 breast
TK-10 renal = system: TK-10 renal
SK-MEL-2 melanoma = system: SK-MEL-2 melanoma
UO-31 renal = system: UO-31 renal

CN1CCN(Cc2ccc(NC(=O)c3cncc(C#Cc4c(N)ncc5ccc(C#N)cc45)c3)cc2C(F)(F)F)CC1
GI50 (PC-3 prostate): 891 nM
TGI (PC-3 prostate): 1750 nM
GI50 (NCI-H522 lung): 748 nM
TGI (NCI-H522 lung): 2010 nM
GI50 (MALME-3M melanoma): 47.7 nM
TGI (MALME-3M melanoma): 331 nM
GI50 (MCF7 breast): 694 nM
TGI (MCF7 breast): 1590 nM
GI50 (SNB-75 CNS): 2290 nM
TGI (SNB-75 CNS): 4540 nM
GI50 (SF-268 CNS): 910 nM
TGI (SF-268 CNS): 1890 nM
GI50 (HT29 colon): 79 nM
TGI (HT29 colon): 1170 nM
GI50 (SK-OV-3 ovarian): 8270 nM
TGI (SK-OV-3 ovarian): 17500 nM
GI50 (SF-539 CNS): 760 nM
TGI (SF-539 CNS): 3070 nM
GI50 (HOP-62 NSCLC): 849 nM
TGI (HOP-62 NSCLC): 1920 nM
GI50 (ACHN renal): 717 nM
TGI (ACHN renal): 1390 nM
GI50 (MDA-MB-435): 333 nM
TGI (MDA-MB-435): 1070 nM
GI50 (UACC-257 melanoma): 483 nM
TGI (UACC-257 melanoma): 1780 nM
GI50 (U251 CNS): 864 nM
TGI (U251 CNS): 1670 nM
GI50 (HCT-15 colon): 827 nM
TGI (HCT-15 colon): 1720 nM
GI50 (HS 578T breast): 741 nM
TGI (HS 578T breast): 9450 nM
GI50 (HCC-2998 colon): 1720 nM
TGI (HCC-2998 colon): 5030 nM
GI50 (786-0 renal): 901 nM
TGI (786-0 renal): 1710 nM
GI50 (A549 NSCLC): 867 nM
TGI (A549 NSCLC): 1680 nM
GI50 (HL-60(TB) leukemia): 1400 nM
TGI (HL-60(TB) leukemia): 50000 nM
GI50 (OVCAR-8 ovarian): 926 nM
TGI (OVCAR-8 ovarian): 1870 nM
GI50 (MOLT-4 leukemia): 801 nM
TGI (MOLT-4 leukemia): 2960 nM
GI50 (T-47D breast): 1230 nM
TGI (T-47D breast): 5850 nM
GI50 (NCI/ADR-RES ovarian): 1110 nM
TGI (NCI/ADR-RES ovarian): 2630 nM
GI50 (COLO 205 colon): 121 nM
TGI (COLO 205 colon): 50000 nM
GI50 (SNB-19 CNS): 952 nM
TGI (SNB-19 CNS): 1790 nM
GI50 (M14 melanoma): 66.8 nM
TGI (M14 melanoma): 729 nM
GI50 (A498 renal): 1070 nM
TGI (A498 renal): 6350 nM
GI50 (CCRF-CEM leukemia): 1040 nM
TGI (CCRF-CEM leukemia): 3080 nM
GI50 (RXF 393 renal): 1080 nM
TGI (RXF 393 renal): 2880 nM
GI50 (NCI-H23 lung): 1020 nM
TGI (NCI-H23 lung): 3600 nM
GI50 (OVCAR-5 ovarian): 813 nM
TGI (OVCAR-5 ovarian): 1610 nM
GI50 (IGROV1 ovarian): 816 nM
TGI (IGROV1 ovarian): 1990 nM
GI50 (SW-620 colon): 696 nM
TGI (SW-620 colon): 1530 nM
GI50 (OVCAR-3 ovarian): 3610 nM
TGI (OVCAR-3 ovarian): 14300 nM
GI50 (SR leukemia): 547 nM
TGI (SR leukemia): 2570 nM
GI50 (OVCAR-4 ovarian): 558 nM
TGI (OVCAR-4 ovarian): 1370 nM
GI50 (DU-145 prostate): 829 nM
TGI (DU-145 prostate): 1590 nM
GI50 (NCI-H226 lung): 294 nM
TGI (NCI-H226 lung): 14500 nM
GI50 (SN12C renal): 2970 nM
TGI (SN12C renal): 7350 nM
GI50 (SK-MEL-28 melanoma): 350 nM
TGI (SK-MEL-28 melanoma): 1100 nM
GI50 (KM12 colon): 5 nM
TGI (KM12 colon): 791 nM
GI50 (HOP-92 NSCLC): 412 nM
TGI (HOP-92 NSCLC): 6350 nM
GI50 (EKVX NSCLC): 791 nM
TGI (EKVX NSCLC): 1570 nM
GI50 (MDA-MB-231 breast): 525 nM
TGI (MDA-MB-231 breast): 1230 nM
GI50 (HCT-116 colon): 700 nM
TGI (HCT-116 colon): 1440 nM
GI50 (CAKI-1 renal): 943 nM
TGI (CAKI-1 renal): 1930 nM
GI50 (SK-MEL-5 melanoma): 785 nM
TGI (SK-MEL-5 melanoma): 1540 nM
GI50 (K-562 leukemia): 5 nM
TGI (K-562 leukemia): 266 nM
GI50 (UACC-62 melanoma): 668 nM
TGI (UACC-62 melanoma): 1420 nM
GI50 (LOX IMVI melanoma): 290 nM
TGI (LOX IMVI melanoma): 1070 nM
GI50 (RPMI-8226 leukemia): 1010 nM
TGI (RPMI-8226 leukemia): 2470 nM
GI50 (SF-295 CNS): 8670 nM
TGI (SF-295 CNS): 18000 nM
GI50 (NCI-H460 lung): 878 nM
TGI (NCI-H460 lung): 1770 nM
GI50 (BT-549 breast): 6460 nM
TGI (BT-549 breast): 14800 nM
GI50 (TK-10 renal): 969 nM
TGI (TK-10 renal): 1870 nM
GI50 (SK-MEL-2 melanoma): 2440 nM
TGI (SK-MEL-2 melanoma): 9560 nM
GI50 (UO-31 renal): 971 nM
TGI (UO-31 renal): 1730 nM

— PubChem BioAssay (NCI)
